# Results taken from patent US20230348456A1, “QUINAZOLINONES, PHARMACEUTICAL COMPOSITIONS CONTAINING THE SAME, AND METHODS OF USING THE SAME” (Repare Therapeutics Inc., priority 2022, published 2023).
# Target: recombinant human Myt1 (Homo sapiens (Human), UniProt Q99640)
# Test: Myt1 enzymatic assay (ADP-Glo kinase assay)
# Format: biochemical
# Conditions: recombinant human Myt1 18 nM, ATP 10 μM
# Protocol: Detection of Myt1 kinase activity utilized a recombinant human Myt1 kinase assay measuring the hydrolysis of ATP using a commercially available ADP-Glo Assay (ADP-Glo™ Kinase Assay from Promega, 10 000 assays, #V9102). Briefly, 5 μL recombinant human Myt1 (full length PKMYT1 recombinant human protein expressed in insect cells from Thermo Fisher #A33387; ˜80% purity) was prepared in reaction buffer (70 mM HEPES, 3 mM MgCl2, 3 mM MnCl2, 50 μg/ml PEG 20000, 3 μM Na-orthovanadate, 1.2 mM DTT) and added to 384 well white polystyrene, flat bottom well, non-treated, microplate (Corning #3572). After this, 5 μL of compounds (diluted in reaction buffer to 0.5% DMSO) was added to the microplate and the plate was spun briefly and incubated at 22° C. for 15 minutes. Ultra-Pure Adenosine Triphosphate (ATP) solution (ADP-Glo kit from Promega) was diluted in reaction buffer and 5 μL was added to the microplate, spun down briefly and incubated for 60 minutes at 30° C. The final Myt1 enzyme concentration was 18 nM and the final ATP concentration was 10 μM. After the 60-minute incubation, 15 μL of ADP-Glo reagent was added and the plate was spun briefly and sealed and incubated in the dark for 40 minutes at 22° C. Following this, 30 μL of kinase detection reagent was added per well and the plate was spun briefly, sealed and incubated for 45-60 minutes at 22° C. in the dark. Luminescence was read using the Envision (250 ms integration). The IC50 and the % max inhibition were calculated for each inhibitor compound tested.
# recombinant human Myt1, sequence (Q99640 whole entry): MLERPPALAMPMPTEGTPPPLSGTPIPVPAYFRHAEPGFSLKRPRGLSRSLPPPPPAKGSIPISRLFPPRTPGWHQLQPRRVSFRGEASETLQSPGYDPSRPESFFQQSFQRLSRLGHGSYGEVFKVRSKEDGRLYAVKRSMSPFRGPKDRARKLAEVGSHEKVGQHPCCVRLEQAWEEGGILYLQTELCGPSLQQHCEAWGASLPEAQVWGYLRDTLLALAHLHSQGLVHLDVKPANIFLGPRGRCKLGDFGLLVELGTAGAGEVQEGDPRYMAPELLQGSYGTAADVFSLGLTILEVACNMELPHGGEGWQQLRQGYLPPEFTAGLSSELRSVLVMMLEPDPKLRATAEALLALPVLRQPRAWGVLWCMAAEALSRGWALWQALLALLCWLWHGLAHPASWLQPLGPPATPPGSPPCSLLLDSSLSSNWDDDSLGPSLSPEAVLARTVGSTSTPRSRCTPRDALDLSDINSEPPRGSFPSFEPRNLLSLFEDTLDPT
row,SMILES,IC50 [nM]
1,Cc1ccc(O)cc1-c1cc(-c2ccccn2)c2nc[nH]c(=O)c2c1N [Compound 137],51
2,Cc1ccc(O)c(C)c1-c1cc(-c2nccs2)c2c(c1N)C(=O)NC2 [Compound 139],7
3,Cc1ccc(O)c(C)c1-c1cc(-c2ccc(F)cn2)c2c(c1N)C(=O)NC2 [Compound 140],111
4,Cc1ccc(O)cc1-c1cc(-c2nc(NC(=O)C3CCOCC3)cs2)c2c(c1N)C(=O)NC2 [Compound 144],930
5,Cc1ccc(O)cc1-c1cc(-c2nc(CN3CCOCC3)cs2)c2c(c1N)C(=O)NC2 [Compound 146],135
6,Cc1ccc(O)cc1-c1cc(-c2ncc(C(=O)NCCO)s2)c2c(c1N)C(=O)NC2 [Compound 147],209
7,Cc1ccc(O)cc1-c1cc(-c2ncc(C(=O)O)s2)c2c(c1N)C(=O)NC2 [Compound 148],1860
8,Cc1ccc(O)cc1-c1cc(-c2nc(C(=O)N(C)C)cs2)c2c(c1N)C(=O)NC2 [Compound 151],61
9,Cc1ccc(O)cc1-c1cc(-c2ncc(C(=O)N3CCOCC3)s2)c2c(c1N)C(=O)NC2 [Compound 152],683
10,Cc1ccc(O)cc1-c1cc(-c2ncc(C#N)s2)c2c(c1N)C(=O)NC2 [Compound 155],179
11,Cc1ccc(O)cc1-c1cc(-c2ncc(Cl)s2)c2c(c1N)C(=O)NC2 [Compound 156],576
12,Cc1ccc(O)cc1-c1cc(-c2nc(C#N)cs2)c2c(c1N)C(=O)NC2 [Compound 160],237
13,"Cc1ccc(O)cc1-c1cc(-c2nc(Cl)cs2)c2c(c1N)C(=O)NC2 [Compound 161, 7-amino-4-(4-chlorothiazol-2-yl)-6-(5-hydroxy-2-methylphenyl)isoindolin-1-one]",253
14,Cc1ccc(O)cc1-c1cc(-c2nc(C(=O)O)cs2)c2c(c1N)C(=O)NC2 [Compound 162],182
15,"Cc1ccc(O)cc1-c1cc(-c2ccccc2)c2c(c1N)C(=O)NC2 [Compound 163, 7-amino-6-(5-hydroxy-2-methyl-phenyl)-4-phenyl-isoindolin-1-one]",1070
16,"Nc1c(-c2cccc3[nH]ncc23)cc(-c2nccs2)c2nc(Oc3ccccc3)[nH]c(=O)c12 [Compound 165, 5-amino-6-(1H-indazol-4-yl)-2-phenoxy-8-(thiazol-2-yl)quinazolin-4(3H)-one]",596

# More lines, now with the values ahead:
row,IC50 [nM],SMILES
1,41,Cc1ccc(O)cc1-c1cc(Br)c2nc[nH]c(=O)c2c1N [Compound 138]
2,92,Cc1ccc(O)c(C)c1-c1cc(Br)c2c(c1N)C(=O)NC2 [Compound 141]
3,2240,Cc1ccc(O)cc1-c1cc(-c2ncc(NC(=O)C3CC3)s2)c2c(c1N)C(=O)NC2 [Compound 142]
4,1600,Cc1ccc(O)cc1-c1cc(-c2ncc(CN3CCOCC3)s2)c2c(c1N)C(=O)NC2 [Compound 143]
5,645,Cc1ccc(O)cc1-c1cc(-c2nc(C(=O)NCCO)cs2)c2c(c1N)C(=O)NC2 [Compound 145]
6,682,Cc1ccc(O)cc1-c1cc(-c2nc(C(F)(F)F)cs2)c2c(c1N)C(=O)NC2 [Compound 149]
7,163,CNC(=O)c1cnc(-c2cc(-c3cc(O)ccc3C)c(N)c3c2CNC3=O)s1 [Compound 150]
8,477,Cc1ccc(O)cc1-c1cc(-c2ncc(C(=O)NC(C)C)s2)c2c(c1N)C(=O)NC2 [Compound 153]
9,298,Cc1ccc(O)cc1-c1cc(-c2ncc(C(=O)N(C)C)s2)c2c(c1N)C(=O)NC2 [Compound 154]
10,244,Cc1ccc(O)cc1-c1cc(-c2nc(C(=O)N3CCOCC3)cs2)c2c(c1N)C(=O)NC2 [Compound 157]
11,55,Cc1ccc(O)cc1-c1cc(-c2nc(C(=O)NC(C)C)cs2)c2c(c1N)C(=O)NC2 [Compound 158]
12,75,CNC(=O)c1csc(-c2cc(-c3cc(O)ccc3C)c(N)c3c2CNC3=O)n1 [Compound 159]
13,12,"Cc1ccc(O)cc1-c1cc(-c2nccs2)c2cc[nH]c(=O)c2c1N [Compound 164, 8-amino-7-(5-hydroxy-2-methyl-phenyl)-5-thiazol-2-yl-2H-isoquinolin-1-one]"
